Reference: patent US6706740B2, “Fungicidal heterocyclic aromatic amides and their compositions, methods of use and preparation” (Dow AgroSciences LLC, priority 1999, dated 2004)

The compounds below were run on Septoria tritici—SEPTTR (assay: Leaf Blotch of Wheat, in vivo whole plant, 24 Hour Protectant). Details: Zymoseptoria tritici, 24 h, 100 ppm spray, 24 hour protectant, wheat; control of fungal infection vs untreated plants; read-out: SEPTTR in vivo 1 Day Protectant.

Compound | pest or weed control at 100 ppm
COc1ccnc(C(=O)NC2CC3CCC2C3)c1O (centres unmarked) [Compound 287] | 25 to 74%

Same assay, conditions: Zymoseptoria tritici, 24 h, 100 ppm spray, wheat, 24 hour protectant, % control of fungal infection vs untreated plants; read-out: SEPTTR in vivo 1 Day Protectant

Compound | pest or weed control at 100 ppm
COc1ccnc(C(=O)N[C@H]2COC(=O)[C@H](Cc3ccccc3)[C@@H](OC(C)=O)[C@H](C)OC2=O)c1OC(C)=O [Compound 596] | 25 to 74%

Same assay, conditions: Zymoseptoria tritici, 24 h, 100 ppm spray, wheat, 24 hour protectant; control of fungal infection vs untreated plants; read-out: SEPTTR in vivo 1 Day Protectant

Compound | pest or weed control at 100 ppm
COc1ccnc(C(=O)N[C@H]2COC(=O)[C@H](Cc3ccccc3)[C@@H](OC(=O)C3CC3)[C@H](C)OC2=O)c1O [Compound 387] | 25 to 74%

Same assay, conditions: Zymoseptoria tritici, 24 h, wheat plants sprayed at 100 ppm, inoculated after 24 hours; control of fungal infection vs untreated plants; read-out: SEPTTR in vivo 1 Day Protectant

Compound | pest or weed control at 100 ppm
O=C(Nc1ccc(Oc2ccc(C(F)(F)F)cc2)cc1)c1nc(Br)ccc1O [Compound 499] | < 25%

Each compound was assayed on Rhizoctonia solani (RHIZSO) (assay: microbe, parasite or virus in culture). Details: Rhizoctonia solani, read-out: RHIZSO in vitro Growth Inhibition.
Type: cell-based

Compound | inhibition at 25 ppm
COc1ccnc(C(=O)N[C@H]2COC(=O)[C@H](Cc3ccccc3)[C@@H](OC(C)=O)[C@H](C)OC2=O)c1OC(C)=O [Compound 596] | < 80%
O=C(Nc1ccc(Oc2ccc(C(F)(F)F)cc2)cc1)c1nc(Br)ccc1O [Compound 499] | < 80%
COc1ccnc(C(=O)N[C@H]2COC(=O)[C@H](Cc3ccccc3)[C@@H](OC(=O)C3CC3)[C@H](C)OC2=O)c1O [Compound 387] | > 80%
COc1ccnc(C(=O)NC2CC3CCC2C3)c1O (centres unmarked) [Compound 287] | > 80%

What follows are compounds tested on Phytophthora infestans (PHYTIN) (assay: microbe, parasite or virus in culture). Details: Phytophthora infestans, read-out: PHYTIN in vitro Growth Inhibition.
Type: cell-based

Compound | inhibition at 25 ppm
COc1ccnc(C(=O)N[C@H]2COC(=O)[C@H](Cc3ccccc3)[C@@H](OC(C)=O)[C@H](C)OC2=O)c1OC(C)=O [Compound 596] | > 80%
O=C(Nc1ccc(Oc2ccc(C(F)(F)F)cc2)cc1)c1nc(Br)ccc1O [Compound 499] | < 80%
COc1ccnc(C(=O)N[C@H]2COC(=O)[C@H](Cc3ccccc3)[C@@H](OC(=O)C3CC3)[C@H](C)OC2=O)c1O [Compound 387] | < 80%
COc1ccnc(C(=O)NC2CC3CCC2C3)c1O (centres unmarked) [Compound 287] | < 80%

These compounds were tested on Leptosphaeria nodorum—LEPTNO (assay: Glume Blotch of Wheat, in vivo whole plant, 24 Hour Protectant). Details: 100 ppm spray, wheat, 24 hour protectant, % control of fungal infection vs untreated plants.

Compound | LEPTNO in vivo 1 Day Protectant
COc1ccnc(C(=O)N[C@H]2COC(=O)[C@H](Cc3ccccc3)[C@@H](OC(C)=O)[C@H](C)OC2=O)c1OC(C)=O [Compound 596] | + +

Same assay, conditions: 100 ppm spray, wheat, 24 hour protectant; control of fungal infection vs untreated plants

Compound | LEPTNO in vivo 1 Day Protectant
COc1ccnc(C(=O)N[C@H]2COC(=O)[C@H](Cc3ccccc3)[C@@H](OC(=O)C3CC3)[C@H](C)OC2=O)c1O [Compound 387] | + +

Same assay, conditions: Leptosphaeria; 100 ppm spray, 24 hour protectant, wheat; control of fungal infection vs untreated plants; read-out: LEPTNO in vivo 1 Day Protectant

Compound | pest or weed control at 100 ppm
COc1ccnc(C(=O)NC2CC3CCC2C3)c1O (centres unmarked) [Compound 287] | 25 to 74%

Same assay, conditions: Leptosphaeria; wheat plants sprayed at 100 ppm, inoculated after 24 hours; control of fungal infection vs untreated plants; read-out: LEPTNO in vivo 1 Day Protectant

Compound | pest or weed control at 100 ppm
O=C(Nc1ccc(Oc2ccc(C(F)(F)F)cc2)cc1)c1nc(Br)ccc1O [Compound 499] | 25 to 74%

Each compound was assayed on Puccinia recondita—PUCCRT (assay: Brown Rust of Wheat, in vivo whole plant, 24 Hour Protectant). Details: 100 ppm spray, wheat, 24 hour protectant, % control of fungal infection vs untreated plants.

Compound | PUCCRT in vivo 1 Day Protectant
COc1ccnc(C(=O)N[C@H]2COC(=O)[C@H](Cc3ccccc3)[C@@H](OC(C)=O)[C@H](C)OC2=O)c1OC(C)=O [Compound 596] | + +

Same assay, conditions: Puccinia; 100 ppm spray, 24 hour protectant, wheat; control of fungal infection vs untreated plants; read-out: PUCCRT in vivo 1 Day Protectant

Compound | pest or weed control at 100 ppm
COc1ccnc(C(=O)NC2CC3CCC2C3)c1O (centres unmarked) [Compound 287] | 25 to 74%

Same assay, conditions: Puccinia; 100 ppm spray, wheat, 24 hour protectant; control of fungal infection vs untreated plants; read-out: PUCCRT in vivo 1 Day Protectant

Compound | pest or weed control at 100 ppm
COc1ccnc(C(=O)N[C@H]2COC(=O)[C@H](Cc3ccccc3)[C@@H](OC(=O)C3CC3)[C@H](C)OC2=O)c1O [Compound 387] | 25 to 74%

Same assay, conditions: Puccinia; wheat plants sprayed at 100 ppm, inoculated after 24 hours; control of fungal infection vs untreated plants; read-out: PUCCRT in vivo 1 Day Protectant

Compound | pest or weed control at 100 ppm
O=C(Nc1ccc(Oc2ccc(C(F)(F)F)cc2)cc1)c1nc(Br)ccc1O [Compound 499] | 25 to 74%

Each compound was assayed on Phytophthora infestans—PHYTIN (assay: whole plant or invertebrate). Details: Phytophthora, in Solanum lycopersicum, 24 h, read-out: PHYTIN in vivo 1 Day Protectant.
Type: in vivo

Compound | pest or weed control at 100 ppm
COc1ccnc(C(=O)N[C@H]2COC(=O)[C@H](Cc3ccccc3)[C@@H](OC(C)=O)[C@H](C)OC2=O)c1OC(C)=O [Compound 596] | < 25%
O=C(Nc1ccc(Oc2ccc(C(F)(F)F)cc2)cc1)c1nc(Br)ccc1O [Compound 499] | < 25%
COc1ccnc(C(=O)N[C@H]2COC(=O)[C@H](Cc3ccccc3)[C@@H](OC(=O)C3CC3)[C@H](C)OC2=O)c1O [Compound 387] | < 25%
COc1ccnc(C(=O)NC2CC3CCC2C3)c1O (centres unmarked) [Compound 287] | < 25%

The compounds below were run on Ustilago maydis (USTIMA) (assay: microbe, parasite or virus in culture). Details: Mycosarcoma maydis, read-out: USTIMA in vitro Growth Inhibition.
Type: cell-based

Compound | inhibition at 25 ppm
COc1ccnc(C(=O)N[C@H]2COC(=O)[C@H](Cc3ccccc3)[C@@H](OC(C)=O)[C@H](C)OC2=O)c1OC(C)=O [Compound 596] | < 80%
O=C(Nc1ccc(Oc2ccc(C(F)(F)F)cc2)cc1)c1nc(Br)ccc1O [Compound 499] | < 80%
COc1ccnc(C(=O)N[C@H]2COC(=O)[C@H](Cc3ccccc3)[C@@H](OC(=O)C3CC3)[C@H](C)OC2=O)c1O [Compound 387] | > 80%
COc1ccnc(C(=O)NC2CC3CCC2C3)c1O (centres unmarked) [Compound 287] | < 80%

These compounds were tested on Stagonospora nodorum (Leptosphaeria nodorum—LEPTNO) (assay: In vitro fungal growth inhibition, Stagonospora nodorum (LEPTNO)). Details: Leptosphaeria; 25 ppm in growth medium; read-out: LEPTNO in vitro Growth Inhibition.
Type: cell-based

Compound | inhibition at 25 ppm
COc1ccnc(C(=O)N[C@H]2COC(=O)[C@H](Cc3ccccc3)[C@@H](OC(C)=O)[C@H](C)OC2=O)c1OC(C)=O [Compound 596] | < 80%
COc1ccnc(C(=O)N[C@H]2COC(=O)[C@H](Cc3ccccc3)[C@@H](OC(=O)C3CC3)[C@H](C)OC2=O)c1O [Compound 387] | > 80%
COc1ccnc(C(=O)NC2CC3CCC2C3)c1O (centres unmarked) [Compound 287] | < 80%

Same assay, conditions: Leptosphaeria; 25 ppm in the growth medium; read-out: LEPTNO in vitro Growth Inhibition

Compound | inhibition at 25 ppm
O=C(Nc1ccc(Oc2ccc(C(F)(F)F)cc2)cc1)c1nc(Br)ccc1O [Compound 499] | < 80%

Each compound was assayed on Magnaporthe grisea (Pyricularia oryzae—PYRIOR) (assay: microbe, parasite or virus in culture). Details: Pyricularia oryzae, read-out: PYRIOR in vitro Growth Inhibition.
Type: cell-based

Compound | inhibition at 25 ppm
COc1ccnc(C(=O)N[C@H]2COC(=O)[C@H](Cc3ccccc3)[C@@H](OC(C)=O)[C@H](C)OC2=O)c1OC(C)=O [Compound 596] | > 80%
O=C(Nc1ccc(Oc2ccc(C(F)(F)F)cc2)cc1)c1nc(Br)ccc1O [Compound 499] | < 80%
COc1ccnc(C(=O)N[C@H]2COC(=O)[C@H](Cc3ccccc3)[C@@H](OC(=O)C3CC3)[C@H](C)OC2=O)c1O [Compound 387] | > 80%
COc1ccnc(C(=O)NC2CC3CCC2C3)c1O (centres unmarked) [Compound 287] | < 80%

These compounds were tested on Erysiphe graminis—ERYSGT (assay: Powdery Mildew of Wheat, in vivo whole plant, 24 Hour Protectant). Details: Erysiphe; 100 ppm spray, 24 hour protectant, wheat; control of fungal infection vs untreated plants; read-out: ERYSGT in vivo 1 Day Protectant.

Compound | pest or weed control at 100 ppm
COc1ccnc(C(=O)NC2CC3CCC2C3)c1O (centres unmarked) [Compound 287] | < 25%

Same assay, conditions: Erysiphe; 100 ppm spray, wheat, 24 hour protectant, % control of fungal infection vs untreated plants; read-out: ERYSGT in vivo 1 Day Protectant

Compound | pest or weed control at 100 ppm
COc1ccnc(C(=O)N[C@H]2COC(=O)[C@H](Cc3ccccc3)[C@@H](OC(C)=O)[C@H](C)OC2=O)c1OC(C)=O [Compound 596] | < 25%

Same assay, conditions: Erysiphe; 100 ppm spray, wheat, 24 hour protectant; control of fungal infection vs untreated plants; read-out: ERYSGT in vivo 1 Day Protectant

Compound | pest or weed control at 100 ppm
COc1ccnc(C(=O)N[C@H]2COC(=O)[C@H](Cc3ccccc3)[C@@H](OC(=O)C3CC3)[C@H](C)OC2=O)c1O [Compound 387] | 25 to 74%

Same assay, conditions: Erysiphe; wheat plants sprayed at 100 ppm, inoculated after 24 hours; control of fungal infection vs untreated plants; read-out: ERYSGT in vivo 1 Day Protectant

Compound | pest or weed control at 100 ppm
O=C(Nc1ccc(Oc2ccc(C(F)(F)F)cc2)cc1)c1nc(Br)ccc1O [Compound 499] | < 25%

Each compound was assayed on Mycosphaerella graminicola (Septoria tritici—SEPTTR) (assay: In vitro fungal growth inhibition, Mycosphaerella graminicola (SEPTTR)). Details: Zymoseptoria tritici; 25 ppm in growth medium; read-out: SEPTTR in vitro Growth Inhibition.
Type: cell-based

Compound | inhibition at 25 ppm
COc1ccnc(C(=O)N[C@H]2COC(=O)[C@H](Cc3ccccc3)[C@@H](OC(C)=O)[C@H](C)OC2=O)c1OC(C)=O [Compound 596] | < 80%
COc1ccnc(C(=O)N[C@H]2COC(=O)[C@H](Cc3ccccc3)[C@@H](OC(=O)C3CC3)[C@H](C)OC2=O)c1O [Compound 387] | > 80%
COc1ccnc(C(=O)NC2CC3CCC2C3)c1O (centres unmarked) [Compound 287] | < 80%

Same assay, conditions: Zymoseptoria tritici; 25 ppm in the growth medium; read-out: SEPTTR in vitro Growth Inhibition

Compound | inhibition at 25 ppm
O=C(Nc1ccc(Oc2ccc(C(F)(F)F)cc2)cc1)c1nc(Br)ccc1O [Compound 499] | < 80%
